Assay results reported in ChEMBL document CHEMBL1151618, “Neoisostegane, a new bisbenzocyclooctadiene lignan lactone from Steganotaenia araliacea” (1984).
In brackets after ≈: the same amount, converted by molar mass.

Tested on: KB
Test: Cytotoxicity against human KB cells
Assay type: functional
Settings: read-out: ED50 (the source's name)

COc1cc2c(cc1OC)-c1cc(OC)c(OC)c(OC)c1C[C@H]1C(=O)OC[C@@H]1C2 [NEOISOSTEGANE]
EC50: 6.6 µg/mL (≈ 15.9 µM)
